In the test the target is T1, AR F876L (Homo sapiens, UniProt P10275, F877L).
T1 construct: expressed in transfected cells; host or cells: 293T AR F876L
T1 sequence (P10275 1-920 F877L): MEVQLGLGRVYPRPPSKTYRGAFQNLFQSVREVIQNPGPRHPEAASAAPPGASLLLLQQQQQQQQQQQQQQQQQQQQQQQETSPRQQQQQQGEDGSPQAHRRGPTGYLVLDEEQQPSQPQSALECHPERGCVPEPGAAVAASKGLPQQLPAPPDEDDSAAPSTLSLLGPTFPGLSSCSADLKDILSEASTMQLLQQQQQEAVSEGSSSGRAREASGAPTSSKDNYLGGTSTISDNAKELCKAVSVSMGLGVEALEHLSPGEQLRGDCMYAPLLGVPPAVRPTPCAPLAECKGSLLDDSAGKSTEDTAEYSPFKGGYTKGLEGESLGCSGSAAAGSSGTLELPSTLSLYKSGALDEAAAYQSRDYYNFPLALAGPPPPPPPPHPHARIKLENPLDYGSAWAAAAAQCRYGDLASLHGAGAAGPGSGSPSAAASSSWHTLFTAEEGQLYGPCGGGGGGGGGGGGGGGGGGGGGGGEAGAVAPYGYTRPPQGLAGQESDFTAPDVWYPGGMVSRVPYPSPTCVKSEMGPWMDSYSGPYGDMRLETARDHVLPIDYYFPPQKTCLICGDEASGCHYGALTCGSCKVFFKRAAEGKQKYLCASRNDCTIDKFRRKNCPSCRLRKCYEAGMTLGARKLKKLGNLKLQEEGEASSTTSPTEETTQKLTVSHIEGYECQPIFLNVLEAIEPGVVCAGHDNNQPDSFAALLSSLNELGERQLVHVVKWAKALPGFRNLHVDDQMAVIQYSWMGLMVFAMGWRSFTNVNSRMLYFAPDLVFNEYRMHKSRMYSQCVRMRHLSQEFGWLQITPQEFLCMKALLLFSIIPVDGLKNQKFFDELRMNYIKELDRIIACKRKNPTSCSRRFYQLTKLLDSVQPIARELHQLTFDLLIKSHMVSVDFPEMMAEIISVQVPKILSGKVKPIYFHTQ
As to the kind of experiment: In cell western of AR protein in 293T AR F876L cells. The test is classed as cell-based. The note with it: AR degradation, 48 hours. Here is the method:
Experimental purpose: In this experiment, the effects of compounds WX015, WX016, and WX017 on the expression level of AR protein with point mutation in cell line 293T AR F876L were detected by in cell western assay to evaluate the degradation effect of compounds on proteins with AR F876L point mutation.
The cell line was cultured in a 37° C., 5% CO2 incubator. Regular passage, and cells in logarithmic growth phase were taken for plating.
2. Cell Plating: • 1) Cells were stained with trypan blue and viable cells were counted. • 2) The cell concentration was adjusted to an appropriate concentration with a density of 20000/well. • 3) 90 μL of cell suspension per well was added to a 96-well culture plate, and cell-free culture medium was added to the blank control well. • 4) The culture plate was cultured overnight in a 37° C., 5% CO2 incubator with 100% relative humidity.
3. […]
Relative quantification of the density intensity of immunoblot chemiluminescence bands was performed using Image Studio Ver 5.2 software.

Counter-ions that a name gives are not always drawn.

The source of these data is patent publication US20240190851A1, “FURAN FUSED RING-SUBSTITUTED GLUTARIMIDE COMPOUND” (MEDSHINE DISCOVERY INC., priority 2021, published 2024).

What is called DC50 is the concentration at which degradation of the target reaches its halfway point. The term Dmax denotes the greatest extent of degradation seen. A lower Dmax goes with a partial loss of target.

`N#Cc1ccc(O[C@H]2CC[C@H](NC(=O)c3ccc(N4CCC(CN5CCN(c6cccc7c6ccc6occ(C8CCC(=O)NC8=O)c67)CC5)CC4)nn3)CC2)cc1Cl` (some centres unmarked) [Hydrochloride of WX015]: the DC50 worked out at 43 nM. Further, where the note is “HEK-293T”, the Dmax came out at 85%.
